What was measured:
RUP3 [1] = molecular target: T1, RUP3 (Mesocricetus auratus, UniProt A0A1U8CD06); experiment: Stimulation of cAMP in HIT-T15 cells (cAMP Flashplate Assay); assay type: cell-based, hamster; conditions: Table 6
T1 construct: host or cells: HIT-T15 hamster insulin-producing cells
T1 sequence (A0A1U8CD06 1-334): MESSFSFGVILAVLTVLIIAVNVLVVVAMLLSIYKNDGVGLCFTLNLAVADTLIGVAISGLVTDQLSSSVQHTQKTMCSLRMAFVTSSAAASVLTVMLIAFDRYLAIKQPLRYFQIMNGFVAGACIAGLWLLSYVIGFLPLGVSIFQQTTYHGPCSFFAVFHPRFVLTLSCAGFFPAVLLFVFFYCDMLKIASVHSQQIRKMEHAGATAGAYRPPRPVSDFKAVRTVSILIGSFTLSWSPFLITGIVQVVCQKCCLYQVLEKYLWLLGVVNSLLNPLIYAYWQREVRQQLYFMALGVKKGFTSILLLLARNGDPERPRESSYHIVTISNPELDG
Protocol: HIT-T15 (ATCC CRL#1777) is an immortalized hamster insulin-producing cell line. These cells express RUP3 and therefore can be used to assess the ability of RUP3 ligands to stimulate or inhibit cAMP accumulation via its endogenously expressed receptor. In this assay, cells are grown to 80% confluence and then distributed into a 96-well Flashplate (50,000 cells/well) for detection of cAMP via a “cAMP Flashplate Assay” (NEN, Cat #SMP004). Briefly, cells are placed into anti-cAMP antibody-coated wells that contain either vehicle, the test ligand(s) at a concentration of interest, or 1 uM forskolin. The latter is a direct activator of adenylyl cyclase and serves as a positive control for stimulation of cAMP in HIT-T15 cells. All conditions are tested in triplicate. After a 1 hour incubation to allow for stimulation of cAMP, a Detection Mix containing ^125I-cAMP is added to each well and the plate is allowed to incubate for another 1 hour. The wells are then aspirated to remove unbound ^125I-cAMP. Bound ^125I-cAMP is detected using a Wallac Microbeta Counter. The amount of cAMP in each sample is determined by comparison to a standard curve, obtained by placing known concentrations of cAMP in some wells on the plate.
A number of the compounds disclosed herein were screened using the above described assay.

RUP3 [2] = molecular target: T2, RUP3 (Homo sapiens, UniProt Q8TDV5); experiment: RUP3 dose responses in melanophores; assay type: cell-based; conditions: melanophores transfected with RUP3 expression vector; Table 8
T2 construct: expressed in transfected cells; host or cells: melanophores, electroporated
T2 sequence (Q8TDV5 1-335): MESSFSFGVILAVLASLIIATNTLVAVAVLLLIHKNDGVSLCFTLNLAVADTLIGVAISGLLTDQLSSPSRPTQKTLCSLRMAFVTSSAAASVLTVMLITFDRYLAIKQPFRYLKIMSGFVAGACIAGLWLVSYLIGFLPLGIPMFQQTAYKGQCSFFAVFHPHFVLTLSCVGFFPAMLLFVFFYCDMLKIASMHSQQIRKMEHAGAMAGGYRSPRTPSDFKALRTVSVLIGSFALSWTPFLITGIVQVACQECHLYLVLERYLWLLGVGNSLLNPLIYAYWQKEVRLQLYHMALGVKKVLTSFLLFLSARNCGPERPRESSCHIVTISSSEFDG
Protocol: Melanophores are maintained in culture as reported by Potenza, M. N. and Lerner, M. R., in Pigment Cell Research, Vol. 5, 372-378, 1992 and transfected with the RUP3 expression vector (pCMV) using electroporation. Following electroporation, the transfected cells are plated into 96 well plates for the assay. The cells are then allowed to grow for 48 hours in order to both recover from the electroporation procedure and attain maximal receptor expression levels.
On the assay day, the growth medium on the cells is replaced with serum-free buffer containing 10 nM melatonin. The melatonin acts via an endogenous Gi-coupled GPCR in the melanophores to lower intracellular cAMP levels. In response to lowered cAMP levels, the melanophores translocate their pigment to the center of the cell. The net effect of this is a significant decrease in the absorbance reading of the cell monolayer in the well, measured at […].
After a 1-hour incubation in melatonin, the cells become completely pigment-aggregated. At this point a baseline absorbance reading is collected. Serial dilutions of test compounds are then added to the plate and compounds that stimulate RUP3 produce increases in intracellular cAMP levels. In response to these increased cAMP levels, the melanophores translocate their pigment back into the cell periphery. After one hour, stimulated cells are fully pigment-dispersed. The cell monolayer in the dispersed state absorbs much more light in the 600-650 nm range. The measured increase in absorbance compared to the baseline reading allows one to quantitate the degree of receptor stimulation and plot a dose-response curve.
The compounds in the above examples were screened using the melanophore assay.

Male Sprague Dawley rats = experiment: Oral glucose tolerance test (oGTT) in rats; assay type: in vivo, rat; conditions: for % inhibition of glucose excursion: mean of six rats, dextrose 2 g/kg oral challenge; for effect on blood glucose after challenge with glucose: rats, p.o., oGTT
Protocol: Male Sprague Dawley rats weighing approximately 200 g-250 g were fasted for 15 hours and randomly grouped (n=6) to receive a RUP3 agonist (Compounds A78, A88 or A118) at 3, 10 or 30 mg/kg. Compounds were delivered orally via a gavage needle (p.o., volume 3 ml/kg). At time 0, levels of blood glucose were assessed using a glucometer (Elite XL, Bayer), and rats were administered either vehicle (20% hydroxypropyl-beta-cyclodextrin) or test compound. Thirty minutes after administration of test compound, levels of blood glucose were again assessed, and rats were administered dextrose orally at a dose of 2 g/kg. Blood glucose measurements were then taken 30 min, 60 min, and 120 min after this time.

Row | SMILES | EC50 (RUP3 [2]) [nM] | other results
1 | CC(C)(C)OC(=O)N1CCC(Oc2ncnc(Nc3ccc(S(C)(=O)=O)cc3)c2[N+](=O)[O-])CC1 [Compound A1, 4-[6-(4-Methanesulfonyl-phenylamino)-5-nitro-pyrimidin-4-yloxy]-piperidine-1-carboxylic acid tert-butyl ester] |  | EC50 (RUP3 [1]): 20 nM
2 | CC(C)(C)C(=O)CN1CCC(Oc2ncnc(Nc3ccc(S(C)(=O)=O)cc3)c2[N+](=O)[O-])CC1 [Compound A11, 1-{4-[6-(4-Methanesulfonyl-phenylamino)-5-nitro-pyrimidin-4-yloxy]-piperidin-1-yl}-3,3-dimethyl-butan-2-one] | 86 | 
3 | CC(C)(C)OC(=O)N1CCC(CCOc2ncnc(Nc3ccc(S(C)(=O)=O)cc3)c2[N+](=O)[O-])CC1 [Compound A14, 4-{2-[6-(4-Methanesulfonyl-phenylamino)-5-nitro-pyrimidin-4-yloxy]-ethyl}-piperidine-1-carboxylic acid tert-butyl ester] | 242 | 
4 | CS(=O)(=O)c1ccc(Nc2ncnc(OC3CCN(C(=O)c4cccnc4)CC3)c2[N+](=O)[O-])cc1 [Compound A24, {4-[6-(4-Methanesulfonyl-phenylamino)-5-nitro-pyrimidin-4-yloxy]-piperidin-1-yl}-pyridin-3-yl-methanone] | 185 | 
5 | CC(C)(C)OC(=O)N1CCC(Oc2ncnc(Nc3ccc(S(C)(=O)=O)cc3F)c2[N+](=O)[O-])CC1 [Compound A34, 4-[6-(2-Fluoro-4-methanesulfonyl-phenylamino)-5-nitro-pyrimidin-4-yloxy]-piperidine-1-carboxylic acid tert-butyl ester] |  | EC50 (RUP3 [1]): 27 nM
6 | CC(C)(C)OC(=O)N1CCC(Oc2ncnc(Nc3ccc(S(C)(=O)=O)cc3)c2C#N)CC1 [Compound A35, 4-[5-Cyano-6-(4-methanesulfonyl-phenylamino)-pyrimidin-4-yloxy]-piperidine-1-carboxylic acid tert-butyl ester] |  | EC50 (RUP3 [1]): 59 nM
7 | CC(C)OC(=O)N1CCC(Oc2ncnc(Nc3ccc(S(C)(=O)=O)cc3F)c2C#N)CC1 [Compound A78, 4-[5-Cyano-6-(2-fluoro-4-methanesulfonyl-phenylamino)-pyrimidin-4-yloxy]-piperidine-1-carboxylic acid isopropyl ester] |  | % inhibition of glucose excursion (Male Sprague Dawley rats; 10 mg/kg p.o.): 39%, (10); effect on blood glucose after challenge with glucose (Male Sprague Dawley rats): lowered blood glucose
8 | Cc1c(Nc2cc(F)c(C#N)cc2F)ncnc1OC1CCN(C(=O)OC(C)C)CC1 [Compound A88, 4-[6-(4-Cyano-2,5-difluoro-phenylamino)-5-methyl-pyrimidin-4-yloxy]-piperidine-1-carboxylic acid isopropyl ester] |  | % inhibition of glucose excursion (Male Sprague Dawley rats; 30 mg/kg p.o.): 38%, (30); effect on blood glucose after challenge with glucose (Male Sprague Dawley rats): lowered blood glucose
9 | Cc1c(OC2CCN(C(=O)OC(C)C)CC2)ccnc1Nc1ccc(S(C)(=O)=O)cc1F [Compound A118, 4-[2-(2-Fluoro-4-methanesulfonyl-phenylamino)-3-methyl-pyridin-4-yloxy]-piperidine-1-carboxylic acid isopropyl ester] |  | % inhibition of glucose excursion (Male Sprague Dawley rats; 30 mg/kg p.o.): 43%, (30); effect on blood glucose after challenge with glucose (Male Sprague Dawley rats): lowered blood glucose

Second part, led by results:

Row | EC50 (RUP3 [2]) [nM] | SMILES | other results
10 | 76.5 | CS(=O)(=O)c1ccc(Nc2ncnc(OC3CCN(S(C)(=O)=O)CC3)c2[N+](=O)[O-])cc1 [Compound A27, (4-Methanesulfonyl-phenyl)-[6-(1-methanesulfonyl-piperidin-4-yloxy)-5-nitro-pyrimidin-4-yl]-amine] | 
11 | 43.5 | Cc1nc(C)c(S(=O)(=O)N2CCC(Oc3ncnc(Nc4ccc(S(C)(=O)=O)cc4)c3[N+](=O)[O-])CC2)s1 [Compound A32, {6-[1-(2,4-Dimethyl-thiazole-5-sulfonyl)-piperidin-4-yloxy]-5-nitro-pyrimidin-4-yl}-(4-methanesulfonyl-phenyl)-amine] | 
12 | 16.9 | CC(C)OC(=O)N1CCC(Oc2ncnc(Nc3ccc(S(C)(=O)=O)cc3)c2C#N)CC1 [Compound A39, 4-[5-Cyano-6-(4-methanesulfonyl-phenylamino)-pyrimidin-4-yloxy]-piperidine-1-carboxylic acid isopropyl ester] | 
13 | 52 | Cc1nc(Cl)ccc1Nc1ncnc(OC2CCN(C(=O)OC(C)C)CC2)c1C [Compound A90, 4-[6-(6-Chloro-2-methyl-pyridin-3-ylamino)-5-methyl-pyrimidin-4-yloxy]-piperidine-1-carboxylic acid isopropyl ester] | 
14 | 300 | CC(C)(C)C(=O)N1CCC(Nc2ncnc(Nc3ccc(S(C)(=O)=O)cc3)c2[N+](=O)[O-])CC1 [Compound B4, 1-{4-[6-(4-Methanesulfonyl-phenylamino)-5-nitro-pyrimidin-4-ylamino]-piperidin-1-yl}-2,2-dimethyl-propan-1-one] | 
15 | 28.3 | Cc1c(Oc2ccc(CCn3ccnc3)cc2F)ncnc1OC1CCN(C(=O)OC(C)C)CC1 [Compound C168, 4-{6-[2-Fluoro-4-(2-imidazol-1-yl-ethyl)-phenoxy]-5-methyl-pyrimidin-4-yloxy}-piperidine-1-carboxylic acid isopropyl ester] | 
